Assay results from patent US12466803B2 (priority 2021, dated 2025).

tested on: phospho (S293) BCKDHA in human skeletal myocytes; assay: Phospho BCKDHA Alpha Surefire Cell Assay; assay type: cell-based; conditions: 60 minutes with compound, geometric mean

Row | IC50 [nM] | SMILES
1 | > 29000 | C[C@@H]1CCc2cc(-c3c(C(=O)O)sc4ccccc34)ccc2O1 (single isomer, unassigned) [Example 46, 3-(2-methyl-3,4-dihydro-2H-1-benzopyran-6-yl)-1-benzothiophene-2-carboxylic acid, ENANT-2]
2 | > 60000 | C[C@@H]1CCc2cc(-c3c(C(=O)O)sc4ccccc34)ccc2O1 (single isomer, unassigned) [Example 45, 3-(2-methyl-3,4-dihydro-2H-1-benzopyran-6-yl)-1-benzothiophene-2-carboxylic acid, ENANT-1]
3 | 3600 | C[C@@H]1CCc2cc(-c3c(C(=O)O)sc4cc(F)ccc34)c(F)cc2O1 (single isomer, unassigned) [Example 69, 6-fluoro-3-(7-fluoro-2-methyl-3,4-dihydro-2H-1-benzopyran-6-yl)-1-benzothiophene-2-carboxylic acid, ENANT-2]
4 | > 24000 | C[C@@H]1CCc2cc(-c3c(C(=O)O)sc4cc(Cl)ccc34)ccc2O1 (single isomer, unassigned) [Example 42, 6-chloro-3-(2-methyl-3,4-dihydro-2H-1-benzopyran-6-yl)-1-benzothiophene-2-carboxylic acid, ENANT-2]

Row | SMILES | IC50 [nM]
5 | COc1c(F)cc(Cl)c(-c2c(C(=O)O)sc3cc(F)ccc23)c1F (atropisomer, axis not shown) [Example 15, 3-(6-Chloro-2,4-difluoro-3-methoxyphenyl)-6-fluoro-1-benzothiophene-2-carboxylic acid, ATROP-1] | > 60000

same assay, conditions: Homo sapiens, 1 h, 60 minutes with compound, geometric mean

Row | IC50 [nM] | SMILES
6 | 460 | Cc1c(Cl)ccc(-c2c(C(=O)O)sc3cc(F)ccc23)c1F [Example 38, 3-(4-chloro-2-fluoro-3-methylphenyl)-6-fluoro-1-benzothiophene-2-carboxylic acid]
7 | 12000 | CCOc1c(Cl)ccc(-c2c(C(=O)O)sc3cc(F)ccc23)c1F [Example 51, 3-(4-chloro-3-ethoxy-2-fluorophenyl)-6-fluoro-1-benzothiophene-2-carboxylic acid]
8 | > 60000 | C[C@@H]1CCc2cc(-c3c(C(=O)O)sc4cc(F)ccc34)ccc2O1 (single isomer, unassigned) [Example 43, 6-fluoro-3-(2-methyl-3,4-dihydro-2H-1-benzopyran-6-yl)-1-benzothiophene-2-carboxylic acid, ENANT-1]
9 | 3600 | CC1CCc2c(ccc(-c3c(C(=O)O)sc4cc(F)ccc34)c2F)O1 (stereo not drawn) [Example 76, 6-fluoro-3-(5-fluoro-2-methyl-3,4-dihydro-2H-1-benzopyran-6-yl)-1-benzothiophene-2-carboxylic acid]
10 | 1100 | COc1ccc(Cl)c(-c2c(C(=O)O)sc3cc(F)ccc23)c1F [Example 150, 3-(6-chloro-2-fluoro-3-methoxyphenyl)-6-fluoro-1-benzothiophene-2-carboxylic acid]
11 | > 54000 | CC1COc2cc(-c3c(C(=O)O)sc4cc(F)ccc34)ccc2C1 (stereo not drawn) [Example 40, 6-fluoro-3-(3-methyl-3,4-dihydro-2H-1-benzopyran-7-yl)-1-benzothiophene-2-carboxylic acid]
12 | > 60000 | C[C@H]1CCc2ccc(-c3c(C(=O)O)sc4cc(F)ccc34)cc2O1 (single isomer, unassigned) [Example 57, 6-fluoro-3-(2-methyl-3,4-dihydro-2H-1-benzopyran-7-yl)-1-benzothiophene-2-carboxylic acid, ENANT-1]
13 | 1100 | COc1ccc(F)c(-c2c(C(=O)O)sc3cc(F)ccc23)c1F [Example 55, 3-(2,6-difluoro-3-methoxyphenyl)-6-fluoro-1-benzothiophene-2-carboxylic acid]
14 | 540 | O=C(O)c1sc2cc(F)ccc2c1-c1c(F)ccc(Cl)c1F [Example 97, 3-(3-chloro-2,6-difluorophenyl)-6-fluoro-1-benzothiophene-2-carboxylic acid]
15 | 1900 | O=C(O)c1sc2cc(F)ccc2c1-c1ccc2c(c1F)CCCO2 [Example 32, 6-fluoro-3-(5-fluoro-3,4-dihydro-2H-1-benzopyran-6-yl)-1-benzothiophene-2-carboxylic acid]
16 | > 60000 | CCCOc1ccc(-c2c(C(=O)O)sc3cc(F)ccc23)c(F)c1F [Example 39, 3-(2,3-difluoro-4-propoxyphenyl)-6-fluoro-1-benzothiophene-2-carboxylic acid]
17 | 3800 | O=C(O)c1sc2cc(F)ccc2c1-c1ccc2c(c1F)OCCC2 [Example 66, 6-fluoro-3-(8-fluoro-3,4-dihydro-2H-1-benzopyran-7-yl)-1-benzothiophene-2-carboxylic acid]
18 | 11000 | O=C(O)c1sc2cc(F)ccc2c1-c1ccc(Cl)cc1F [Example 64, 3-(4-chloro-2-fluorophenyl)-6-fluoro-1-benzothiophene-2-carboxylic acid]
19 | 4900 | O=C(O)c1sc2cc(F)ccc2c1-c1ccc2c(c1)CCCO2 [Example 28, 3-(3,4-dihydro-2H-1-benzopyran-6-yl)-6-fluoro-1-benzothiophene-2-carboxylic acid]
20 | 230 | COc1c(Cl)ccc(-c2c(C(=O)O)sc3cc(F)ccc23)c1F [Example 79, 3-(4-chloro-2-fluoro-3-methoxyphenyl)-6-fluoro-1-benzothiophene-2-carboxylic acid]
21 | 4000 | O=C(O)c1sc2cc(F)ccc2c1-c1c(F)cc(F)cc1Cl [Example 148, 3-(2-chloro-4,6-difluorophenyl)-6-fluoro-1-benzothiophene-2-carboxylic acid]
22 | 2400 | O=C(O)c1sc2cc(Cl)ccc2c1-c1ccc(Cl)c(F)c1 [Example 20, 6-Chloro-3-(4-chloro-3-fluorophenyl)-1-benzothiophene-2-carboxylic acid]

More lines, now with the values behind:

Row | SMILES | IC50 [nM]
23 | O=C(O)c1sc2cc(Cl)ccc2c1-c1cc(Cl)c(F)cc1F [Example 132, ammonium 6-chloro-3-(5-chloro-2,4-difluorophenyl)-1-benzothiophene-2-carboxylate] | 470
24 | CCc1ncc(F)c(-c2c(C(=O)O)sc3cc(F)ccc23)c1F [Example 110, 3-(2-ethyl-3,5-difluoropyridin-4-yl)-6-fluoro-1-benzothiophene-2-carboxylic acid] | 550
25 | O=C(O)c1sc2cc(F)ccc2c1-c1cc(F)c(F)c(O)c1F [Example 22, 6-Fluoro-3-(2,4,5-trifluoro-3-hydroxyphenyl)-1-benzothiophene-2-carboxylic acid] | 23000
26 | O=C(O)c1sc2cc(F)ccc2c1-c1cc(F)cc(F)c1Cl [Example 111, ammonium 3-(2-chloro-3,5-difluorophenyl)-6-fluoro-1-benzothiophene-2-carboxylate] | > 60000
27 | COc1c(F)c(F)cc(-c2c(C(=O)O)oc3cc(Cl)ccc23)c1F [Example 18, 6-Chloro-3-(2,4,5-trifluoro-3-methoxyphenyl)-1-benzofuran-2-carboxylic acid] | 570
28 | COc1c(Cl)ccc(-c2c(C(=O)O)sc3cc(Cl)ccc23)c1F [Example 138, 6-chloro-3-(4-chloro-2-fluoro-3-methoxyphenyl)-1-benzothiophene-2-carboxylic acid] | 160
29 | O=C(O)c1sc2cc(F)ccc2c1-c1c(F)c(F)cc(F)c1F [Example 140, 6-fluoro-3-(2,3,5,6-tetrafluorophenyl)-1-benzothiophene-2-carboxylic acid] | 3800
30 | COc1c(F)cc(F)c(-c2c(C(=O)O)sc3cc(F)ccc23)c1Cl [Example 154, 3-(2-chloro-4,6-difluoro-3-methoxyphenyl)-6-fluoro-1-benzothiophene-2-carboxylic acid] | 4200
31 | Cc1c(Cl)ccc(-c2c(C(=O)O)sc3cc(Cl)ccc23)c1F [Example 146, 6-chloro-3-(4-chloro-2-fluoro-3-methylphenyl)-1-benzothiophene-2-carboxylic acid] | 110
32 | O=C(O)c1sc2cc(F)ccc2c1-c1cc(F)c(F)c(Cl)c1F [Example 24, 3-(3-Chloro-2,4,5-trifluorophenyl)-6-fluoro-1-benzothiophene-2-carboxylic acid] | 400
33 | CCc1c(F)c(F)cc(-c2c(C(=O)O)sc3cc(Cl)ccc23)c1F [Example 134, 6-chloro-3-(3-ethyl-2,4,5-trifluorophenyl)-1-benzothiophene-2-carboxylic acid] | 80
34 | COc1c(F)c(F)cc(-c2c(C(=O)O)sc3cc(Cl)ccc23)c1F [Example 12, Ammonium 6-chloro-3-(2,4,5-trifluoro-3-methoxyphenyl)-1-benzothiophene-2-carboxylate] | 110
35 | O=C(O)c1sc2cc(F)ccc2c1-c1c(F)cc(Cl)cc1F [Example 59, 3-(4-chloro-2,6-difluorophenyl)-6-fluoro-1-benzothiophene-2-carboxylic acid] | > 60000
36 | COc1ccc(F)c(-c2c(C(=O)O)sc3cc(Cl)ccc23)c1F [Example 129, 6-chloro-3-(2,6-difluoro-3-methoxyphenyl)-1-benzothiophene-2-carboxylic acid] | 1800
37 | O=C(O)c1sc2cc(Cl)ccc2c1-c1ccccc1 [Example 74, 6-chloro-3-phenyl-1-benzothiophene-2-carboxylic acid] | > 60000
38 | O=C(O)c1sc2cc(Cl)ccc2c1-c1cc(F)c(F)c(F)c1F [Example 149, ammonium 6-chloro-3-(2,3,4,5-tetrafluorophenyl)-1-benzothiophene-2-carboxylate] | 950
39 | O=C(O)c1sc2cc(F)ccc2c1-c1c(F)cncc1F [Example 107, ammonium 3-(3,5-difluoropyridin-4-yl)-6-fluoro-1-benzothiophene-2-carboxylate] | 8600
40 | COc1c(F)cc(Cl)c(-c2c(C(=O)O)sc3cc(F)ccc23)c1F [Example 14, 3-(6-Chloro-2,4-difluoro-3-methoxyphenyl)-6-fluoro-1-benzothiophene-2-carboxylic acid] | 23
41 | O=C(O)c1sc2c(F)c(F)ccc2c1-c1ccccc1 [Example 4, 6,7-Difluoro-3-phenyl-1-benzothiophene-2-carboxylic acid] | > 60000
42 | Cc1c(F)ccc(-c2c(C(=O)O)sc3cc(Cl)ccc23)c1F [Example 141, 6-chloro-3-(2,4-difluoro-3-methylphenyl)-1-benzothiophene-2-carboxylic acid] | 230
